Paper PMC5642495, “Characterization of a novel androgen receptor (AR) coregulator RIPK1 and related chemicals that suppress AR-mediated prostate cancer growth via peptide and chemical screening” (Oncotarget, 2017)

Key:
Type in all cases: cell-based
AR N-C interaction = target: T1, AR N-C interaction (Homo sapiens, UniProt P10275); assay: AR N-C interaction reporter assay in PC-3 cells; details: 10 nM DHT, Figure 6A
T1 construct: pCDNA3-hAR-C (residues 556–919); expressed in transfected cells; host or cells: PC-3
T1 sequence (P10275 556-919): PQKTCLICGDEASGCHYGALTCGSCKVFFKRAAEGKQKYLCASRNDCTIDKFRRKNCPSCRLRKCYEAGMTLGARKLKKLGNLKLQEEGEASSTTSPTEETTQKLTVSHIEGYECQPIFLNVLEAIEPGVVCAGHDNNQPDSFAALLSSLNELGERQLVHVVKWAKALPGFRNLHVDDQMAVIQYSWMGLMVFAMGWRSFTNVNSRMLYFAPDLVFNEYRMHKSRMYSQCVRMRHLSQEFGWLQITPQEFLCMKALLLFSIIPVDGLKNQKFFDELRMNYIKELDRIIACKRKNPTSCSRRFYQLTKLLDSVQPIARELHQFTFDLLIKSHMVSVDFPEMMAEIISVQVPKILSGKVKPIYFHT
Method: (§1) Figure 6 Mechanism underlying suppression of AR-related functions by oxadiazole derivatives (A–C) Transcriptional activity in reporter assays. PC-3 cells in 24-well plates were transfected as indicated below. After incubation for 16 h, cells were treated with ethanol, 10 nM DHT, or 0.01–10 μM HWC-489 or LHJ-647 for an additional 16 h. Luciferase activity in cell lysates was determined and normalized to protein concentrations. Relative luciferase activity was calculated using the luciferase reporter assay system. (A) PC-3 cells were co-transfected with 350 ng pCDNA3-flag-hAR-N (residues 1–506), 350 ng pCDNA3-hAR-C (residues 556–919), and 300 ng MMTV-Luc plasmids. (B) PC-3 cells were co-transfected with 350 ng GAL4-DBD-3-18, 350 ng pCMX-VP16-AR, and 300 ng pG5-Luc plasmids. (C) PC-3 cells were transfected with 350 ng GAL4-DBD-ARA54C, 350 ng VP16-AR, and 300 ng pG5-Luc plasmids. (D) LHJ-647 promotes AR protein degradation.

AR-peptide interaction = target: T2, AR-peptide interaction (Homo sapiens, UniProt P10275); assay: AR-peptide interaction reporter assay (GAL4-DBD-3-18 / VP16-AR) in PC-3 cells; details: 10 nM DHT, Figure 6B
T2 construct: expressed in transfected cells; host or cells: PC-3
T2 sequence (P10275 1-920): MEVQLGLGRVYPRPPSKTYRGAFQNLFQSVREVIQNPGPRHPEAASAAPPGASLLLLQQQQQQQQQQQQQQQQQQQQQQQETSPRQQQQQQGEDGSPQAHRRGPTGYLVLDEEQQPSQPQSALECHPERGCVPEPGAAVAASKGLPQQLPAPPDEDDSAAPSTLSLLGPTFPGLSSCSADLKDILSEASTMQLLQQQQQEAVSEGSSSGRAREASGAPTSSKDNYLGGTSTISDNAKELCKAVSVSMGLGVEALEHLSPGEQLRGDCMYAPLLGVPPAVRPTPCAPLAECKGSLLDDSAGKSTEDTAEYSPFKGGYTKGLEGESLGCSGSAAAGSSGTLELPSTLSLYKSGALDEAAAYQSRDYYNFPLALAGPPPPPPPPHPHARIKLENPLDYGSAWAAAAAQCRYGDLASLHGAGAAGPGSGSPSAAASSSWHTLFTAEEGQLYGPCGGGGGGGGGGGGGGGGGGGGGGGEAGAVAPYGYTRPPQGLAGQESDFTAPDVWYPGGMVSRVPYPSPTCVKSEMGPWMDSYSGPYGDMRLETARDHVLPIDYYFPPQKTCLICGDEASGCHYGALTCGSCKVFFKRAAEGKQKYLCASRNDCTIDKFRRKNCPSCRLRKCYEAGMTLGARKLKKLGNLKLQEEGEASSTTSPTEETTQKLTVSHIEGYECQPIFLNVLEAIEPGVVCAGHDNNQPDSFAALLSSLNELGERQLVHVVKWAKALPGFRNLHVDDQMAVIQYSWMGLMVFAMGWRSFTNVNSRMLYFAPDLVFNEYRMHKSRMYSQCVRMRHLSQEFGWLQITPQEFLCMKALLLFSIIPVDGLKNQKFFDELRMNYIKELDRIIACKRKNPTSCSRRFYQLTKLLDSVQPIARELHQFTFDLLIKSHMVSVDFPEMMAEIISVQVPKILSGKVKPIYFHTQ
Method: as §1

AR-cofactor interaction = target: T3, AR-cofactor interaction (Homo sapiens, UniProt P10275); assay: AR-cofactor interaction reporter assay (GAL4-DBD-ARA54C / VP16-AR) in PC-3 cells; details: 10 nM DHT, Figure 6C
T3 construct: expressed in transfected cells; host or cells: PC-3
T3 sequence (P10275 1-920): T2 sequence (P10275 1-920)
Method: as §1

COc1cccc(Nc2nnc(-c3ccc(N(C)C)cc3)o2)c1 [LHJ-647]
0.1 to 1 µM: concentration range of significant suppression of AR N-C interaction (AR N-C interaction) | concentration range of significant suppression of AR-peptide interaction (AR-peptide interaction) | concentration range of significant suppression of AR-cofactor interaction (AR-cofactor interaction)

Cc1ccc(-c2nnc(Nc3ccccc3)o2)cc1 [HWC-489]
0.1 to 1 µM: concentration range of significant suppression of AR N-C interaction (AR N-C interaction) | concentration range of significant suppression of AR-peptide interaction (AR-peptide interaction) | concentration range of significant suppression of AR-cofactor interaction (AR-cofactor interaction)
